For 30 molecules, IC50 results are on record in patent US9249114B2, “Thiazole derivatives” (Merck Patent GmbH, priority 2011, dated 2016).

Structures are written as SMILES. pIC50: −log10 of the molar value.

The target of assay [1] is TANK binding kinase (TBK1) (Homo sapiens (Human), UniProt Q9UHD2). Nature of the assay: TBK1 enzyme assay (384-well Flashplate kinase assay). To be noted: 10 μM ATP, 120 Min at 30° C. It counts as biochemical. Here is the method:
Test for the Inhibition of TBK1
The kinase assay is performed as 384-well Flashplate assay (for e.g. Topcount measurement. 0.6 nM TANK binding kinase (TBK1), 800 nM biotinylated MELK-derived peptide (Biotin-Ah-Ah-[…]) SEQ ID NO: 2 and 10 μM ATP (spiked with 0.25 μCi ^33P-ATP/well) are incubated in a total volume of 50 μl (10 mM MOPS, 10 mM Mg-acetat, 0.1 mM EGTA, 1 mM DTT, 0.02% Brij35, 0.1% BSA, pH 7.5) with or without test compound for 120 Min at 30° C. The reaction is stopped with 25 μl 200 mM EDTA. After 30 Min at room temperature the liquid is removed and each well washed thrice with 100 μl 0.9% sodium chloride solution. Nonspecific reaction is determined in presence of 100 nM Staurosporine. Radioactivity is measured in a Topcount (PerkinElmer). Results (e.g. IC50-values) are calculated with program tools provided by the IT-department (e.g. AssayExplorer, Symyx).

The target of the next assay is IKKε (Homo sapiens (Human), UniProt Q14164). Briefly: IKKε kinase assay (384-well Flashplate). It counts as biochemical. To be noted: 10 μM ATP, 2 hours at 30° C.; read-out: IKKε enzyme assay IC50. Here is the method: Test for the Inhibition of IKKε
Chain of IKKε (Q14164 whole entry): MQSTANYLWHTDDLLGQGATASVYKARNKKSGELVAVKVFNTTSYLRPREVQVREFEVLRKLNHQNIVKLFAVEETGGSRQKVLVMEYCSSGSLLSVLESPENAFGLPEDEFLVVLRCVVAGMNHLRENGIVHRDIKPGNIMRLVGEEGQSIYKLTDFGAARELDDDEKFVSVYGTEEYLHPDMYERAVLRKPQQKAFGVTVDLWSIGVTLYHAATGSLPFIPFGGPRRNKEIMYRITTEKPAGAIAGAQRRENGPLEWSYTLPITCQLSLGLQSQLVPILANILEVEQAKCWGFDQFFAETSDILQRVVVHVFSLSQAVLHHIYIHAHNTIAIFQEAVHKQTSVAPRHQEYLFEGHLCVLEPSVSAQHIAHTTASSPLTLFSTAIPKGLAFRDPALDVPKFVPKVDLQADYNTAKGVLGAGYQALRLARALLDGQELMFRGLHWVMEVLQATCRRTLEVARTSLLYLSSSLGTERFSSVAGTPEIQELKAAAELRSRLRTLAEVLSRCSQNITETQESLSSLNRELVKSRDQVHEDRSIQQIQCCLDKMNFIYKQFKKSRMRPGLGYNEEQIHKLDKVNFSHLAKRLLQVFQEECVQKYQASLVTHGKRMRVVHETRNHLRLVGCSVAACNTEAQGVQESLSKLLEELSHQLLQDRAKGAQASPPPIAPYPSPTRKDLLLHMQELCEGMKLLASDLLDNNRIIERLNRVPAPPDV
IKKε—Kinase Assay (IKKepsilon)
The kinase assay is performed either as 384-well Flashplate assay (for e.g. Topcount measurement). […] The reaction is stopped with 25 μl 200 mM EDTA. After 30 Min at room temperature the liquid is removed and each well washed thrice with 100 μl 0.9% sodium chloride solution. […] Radioactivity is measured with Topcount (PerkinElmer). Results (e.g. IC50-values) are calculated with program tools provided by the IT-department (e.g. AssayExplorer, Symyx).

Chain of TANK binding kinase (TBK1) (Q9UHD2 whole entry): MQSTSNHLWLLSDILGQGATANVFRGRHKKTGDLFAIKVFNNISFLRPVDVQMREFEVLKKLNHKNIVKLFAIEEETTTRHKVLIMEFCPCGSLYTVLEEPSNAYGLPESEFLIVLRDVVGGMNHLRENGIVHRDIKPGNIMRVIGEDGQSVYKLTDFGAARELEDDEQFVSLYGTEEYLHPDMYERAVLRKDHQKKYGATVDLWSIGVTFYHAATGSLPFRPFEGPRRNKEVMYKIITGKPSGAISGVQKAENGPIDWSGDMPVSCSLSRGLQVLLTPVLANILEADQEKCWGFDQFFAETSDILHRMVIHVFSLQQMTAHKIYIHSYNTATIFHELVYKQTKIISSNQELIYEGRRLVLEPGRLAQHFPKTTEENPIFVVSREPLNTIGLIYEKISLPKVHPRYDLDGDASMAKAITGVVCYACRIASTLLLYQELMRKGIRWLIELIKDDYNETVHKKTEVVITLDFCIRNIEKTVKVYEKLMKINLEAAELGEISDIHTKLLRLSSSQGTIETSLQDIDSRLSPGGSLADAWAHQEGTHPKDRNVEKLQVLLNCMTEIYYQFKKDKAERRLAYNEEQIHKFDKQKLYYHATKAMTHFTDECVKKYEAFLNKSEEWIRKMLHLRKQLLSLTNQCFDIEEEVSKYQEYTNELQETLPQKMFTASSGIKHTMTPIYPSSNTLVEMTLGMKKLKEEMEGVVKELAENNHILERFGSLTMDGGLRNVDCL

In the case of `CN1CCN(Cc2ccc(C(=O)Nc3sc(-c4ccncc4)nc3C(N)=O)cc2)CC1` [Compound A4, 5-[4-(4-methyl-piperazin-1-ylmethyl)-benzoylamino]-2-pyridin-4-yl-thiazole-4-carboxylic acid amide], the negative logarithm of the IC50 (pIC50) in assay [1] is 6.52.

Take `CN1CCN(Cc2ccc(C(=O)Nc3sc(-c4ccnc(Cl)c4)nc3C(N)=O)cc2)CC1` [Compound A5, 2-(2-chloro-pyridin-4-yl)-5-[4-(4-methyl-piperazin-1-ylmethyl)-benzoylamino]-thiazole-4-carboxylic acid amide]: the negative logarithm of the IC50 (pIC50) in assay [1] was 5.85.

On to `CN1CCN(Cc2ccc(C(=O)Nc3sc(-c4ccnc(F)c4)nc3C(N)=O)cc2)CC1` [Compound A6, 2-(2-fluoro-pyridin-4-yl)-5-[4-(4-methyl-piperazin-1-ylmethyl)-benzoylamino]-thiazole-4-carboxylic acid amide], for which the pIC50 in assay [1] is 6.20; at IKKε it was 6.27.

With `Cc1cc(-c2nc(C(N)=O)c(NC(=O)c3ccc(CN4CCN(C)CC4)cc3)s2)ccn1` [Compound A7, 5-[4-(4-methyl-piperazin-1-ylmethyl)-benzoylamino]-2-(2-methyl-pyridin-4-yl)-thiazole-4-carboxylic acid amide], the negative logarithm of the IC50 (pIC50) in assay [1] is 6.39; on IKKε, 6.41.

As for `CN1CCN(Cc2ccc(C(=O)Nc3sc(-c4ccnc(C(F)(F)F)c4)nc3C(N)=O)cc2)CC1` [Compound A8, 5-[4-(4-methyl-piperazin-1-ylmethyl)-benzoylamino]-2-(2-trifluoromethyl-pyridin-4-yl)-thiazole-4-carboxylic acid amide], the pIC50 in assay [1] was 5.20; at IKKε, 5.68.

Take `CN1CCN(Cc2ccc(C(=O)Nc3sc(-c4ccnc(C#N)c4)nc3C(N)=O)cc2)CC1` [Compound A9, 2-(2-cyano-pyridin-4-yl)-5-[4-(4-methyl-piperazin-1-ylmethyl)-benzoylamino]-thiazole-4-carboxylic acid amide]: the pIC50 is 5.70 in assay [1] and 6.13 at IKKε.

Regarding `CN1CCN(Cc2ccc(Nc3sc(-c4ccncc4)nc3C(N)=O)cc2)CC1` [Compound A14, 5-[4-(4-methyl-piperazin-1-ylmethyl)-phenylamino]-2-pyridin-4-yl-thiazole-4-carboxylic acid amide], the negative logarithm of the IC50 (pIC50) in assay [1] is 5.77; on IKKε, 6.38.

In the case of `Cc1cc(-c2nc(C(N)=O)c(NC(=O)c3ccc(CN4CCN(C)CC4)cc3)s2)cc(C)n1` [Compound A16, 2-(2,6-dimethyl-pyridin-4-yl)-5-[4-(4-methyl-piperazin-1-ylmethyl)-benzoylamino]-thiazole-4-carboxylic acid amide], the pIC50 on IKKε is 5.42.

On to `CN1CCN(Cc2ccc(C(=O)Nc3sc(-c4ccncc4C(F)(F)F)nc3C(N)=O)cc2)CC1` [Compound A17, 5-[4-(4-methyl-piperazin-1-ylmethyl)-benzoylamino]-2-(3-trifluoromethyl-pyridin-4-yl)-thiazole-4-carboxylic acid amide], for which the pIC50 in assay [1] is 5.85; at IKKε it was 6.85.

In the case of `CN1CCN(Cc2ccc(C(=O)Nc3sc(-c4ccncc4Br)nc3C(N)=O)cc2)CC1` [Compound A18, 2-(3-bromo-pyridin-4-yl)-5-[4-(4-methyl-piperazin-1-ylmethyl)-benzoylamino]-thiazole-4-carboxylic acid amide], the pIC50 in assay [1] was 6.51; on IKKε, 6.72.

In the case of `CN1CCN(Cc2ccc(C(=O)Nc3sc(-c4ccncc4F)nc3C(N)=O)cc2)CC1` [Compound A19, 2-(3-fluoro-pyridin-4-yl)-5-[4-(4-methyl-piperazin-1-ylmethyl)-benzoylamino]-thiazole-4-carboxylic acid amide], the negative logarithm of the IC50 (pIC50) in assay [1] is 6.43; on IKKε it was 6.55.

The molecule `NC(=O)c1nc(-c2ccncc2)sc1NC(=O)c1ccc(CC2CCN(C(N)=O)CC2)cc1` [Compound A23, 4-[4-(4-carbamoyl-2-pyridin-4-yl-thiazol-5-ylcarbamoyl)-benzyl]-piperidine-1-carboxylic acid amide] gave a negative logarithm of the IC50 (pIC50) in assay [1] of 7.03.

Take `CN(C)C(=O)CCCCc1ccc(C(=O)Nc2sc(-c3ccncc3)nc2C(N)=O)cc1` [Compound A25, 5-[4-(4-dimethylcarbamoyl-butyl)-benzoylamino]-2-pyridin-4-yl-thiazole-4-carboxylic acid amide]: the pIC50 in assay [1] was 7.00.

On to `NC(=O)c1nc(-c2ccncc2)sc1NC(=O)c1ccc(CCCCCC(=O)O)cc1` [Compound A28, 6-[4-(4-carbamoyl-2-pyridin-4-yl-thiazol-5-ylcarbamoyl)-phenyl]-hexanoic acid], for which the negative-log IC50 (pIC50) in assay [1] is 6.80.

Regarding `NC(=O)c1nc(-c2ccncc2)sc1NC(=O)c1ccc(CC2CCNCC2)cc1` [Compound A29, 5-(4-piperidin-4-ylmethyl-benzoylamino)-2-pyridin-4-yl-thiazole-4-carboxylic acid amide], in assay [1], the negative-log IC50 (pIC50) was 6.72.

Consider `CC(=O)N1CCC(Cc2ccc(C(=O)Nc3sc(-c4ccncc4)nc3C(N)=O)cc2)CC1` [Compound A30, 5-[4-(1-acetyl-piperidin-4-ylmethyl)-benzoylamino]-2-pyridin-4-yl-thiazole-4-carboxylic acid amide], for which the pIC50 in assay [1] was 6.70.

`CN(C)CCNCc1ccc(C(=O)Nc2sc(-c3ccncc3)nc2C(N)=O)cc1` [Compound A31, 5-{4-[(2-dimethylamino-ethylamino)-methyl]-benzoylamino}-2-pyridin-4-yl-thiazole-4-carboxylic acid amide] had a pIC50 in assay [1] of 6.68.

In turn, `CNC(=O)CCCCc1ccc(C(=O)Nc2sc(-c3ccncc3)nc2C(N)=O)cc1` [Compound A32, 5-[4-(4-methylcarbamoyl-butyl)-benzoylamino]-2-pyridin-4-yl-thiazole-4-carboxylic acid amide] had a negative logarithm of the IC50 (pIC50) in assay [1] of 6.62.

In the case of `COCCNCc1ccc(C(=O)Nc2sc(-c3ccncc3)nc2C(N)=O)cc1` [Compound A33, 5-{4-[(2-methoxy-ethylamino)-methyl]-benzoylamino}-2-pyridin-4-yl-thiazole-4-carboxylic acid amide], the pIC50 in assay [1] was 6.59.

`CN1CCN(C(=O)c2ccc(C(=O)Nc3sc(-c4ccncc4)nc3C(N)=O)cc2)CC1` [Compound A34, 5-[4-(4-methyl-piperazine-1-carbonyl)-benzoylamino]-2-pyridin-4-yl-thiazole-4-carboxylic acid amide] gave a pIC50 in assay [1] of 6.51.

In the case of `CN(C)C(=O)CCCCCc1ccc(C(=O)Nc2sc(-c3ccncc3)nc2C(N)=O)cc1` [Compound A35, 5-[4-(5-dimethylcarbamoyl-pentyl)-benzoylamino]-2-pyridin-4-yl-thiazole-4-carboxylic acid amide], in assay [1], the pIC50 was 6.24.

As to `NC(=O)c1nc(-c2ccncc2)sc1NC(=O)c1ccc(CN2CCOCC2)cc1` [Compound A36, 5-(4-morpholin-4-ylmethyl-benzoylamino)-2-pyridin-4-yl-thiazole-4-carboxylic acid amide], the negative logarithm of the IC50 (pIC50) in assay [1] was 6.19.

`NC(=O)c1nc(-c2ccncc2)sc1NC(=O)c1ccc(CN2CCCC2)cc1` [Compound A38, 2-pyridin-4-yl-5-(4-pyrrolidin-1-ylmethyl-benzoylamino)-thiazole-4-carboxylic acid amide]: the pIC50 in assay [1] is 5.94.

The molecule `CC(C)(C)OC(=O)N1CCN(c2ccc(C(=O)Nc3sc(-c4ccncc4)nc3C(N)=O)cn2)CC1` [Compound A39, 4-[5-(4-Carbamoyl-2-pyridin-4-yl-thiazol-5-ylcarbamoyl)-pyridin-2-yl]-piperazine-1-carboxylic acid tert-butyl ester] had a pIC50 in assay [1] of 5.92.

In the case of `COc1ccc(C(=O)Nc2sc(-c3ccncc3)nc2C(N)=O)cc1OC` [Compound A41, 5-(3,4-dimethoxy-benzoylamino)-2-pyridin-4-yl-thiazole-4-carboxylic acid amide], the negative logarithm of the IC50 (pIC50) in assay [1] was 5.82.

In assay [1], `NC(=O)c1nc(-c2ccncc2)sc1NC(=O)c1cnn(CC2CCNCC2)c1` [Compound A44, 5-[(1-piperidin-4-ylmethyl-1H-pyrazole-4-carbonyl)-amino]-2-pyridin-4-yl-thiazole-4-carboxylic acid amide] showed a pIC50 of 5.10.

As to `CN1CCN(Cc2ccc(C(=O)Nc3sc(-c4ccncc4)nc3C#N)cc2)CC1` [Compound A45, N-(4-cyano-2-pyridin-4-yl-thiazol-5-yl)-4-(4-methyl-piperazin-1-ylmethyl)-benzamide], the pIC50 in assay [1] was 5.09.

Regarding `NC(=O)c1nc(-c2ccncc2)sc1NC(=O)c1ccccc1` [Compound A56, 5-benzoylamino-2-pyridin-4-yl-thiazole-4-carboxylic acid amide], the pIC50 in assay [1] is 5.44.

In assay [1], `NC(=O)c1nc(-c2ccncc2)sc1NC(=O)c1cccs1` [Compound A62, 2-pyridin-4-yl-5-[(2-thienylcarbonyl)amino]-1,3-thiazole-4-carboxamide] gave a pIC50 of 5.70.

In the case of `NC(=O)c1nc(-c2ccncc2)sc1NC(=O)c1ccoc1` [Compound A64, 5-(3-furoylamino)-2-pyridin-4-yl-1,3-thiazole-4-carboxamide], the pIC50 in assay [1] is 5.34.

Usually pIC50 stands for the IC50 on a negative log10 scale, so that one unit is a factor of ten.
